According to publication PMC8851282, “Senolysis induced by 25-hydroxycholesterol targets CRYAB in multiple cell types” (iScience, 2022):

What was measured:
[1] = tested on: SARS-CoV-2; design: method as in Wang et al., 2020; Zang et al., 2020; Zu et al., 2020; conditions: by depleting membrane cholesterol, ref Wang et al., 2020, Zang et al., Zu et al.; cited from earlier work
[2] = tested on: human renal proximal tubule epithelial cells (hRPTECs); assay: Cell viability assay of NS and Doxo- or IR-induced senescent hRPTECs treated with 25HC; assay type: cell-based; conditions: 5 μM after 9 days; Doxo or IR induced senescence
Experimental: (§1) Figure 7 25HC treatment timeline and its effects on NS and SEN hCMECs, hLSCs, hRPTECs, and hACs All cell types were treated with either DMSO, 250 nM Doxo or 10-Gy IR at the times shown. 25HC treatment was started 24 h after Doxo or IR treatment. Cell viability was measured every 3–5 days for 15 days. Optimal treatment times for maximum senolysis are shown for each cell type: day 15 for hCMECs, day 3 for hLSCs, day 9 for hRPTECs and day 12 for hACs. For qRT-PCR: mean ± SE, n =4, ∗p< 0.05, ∗∗p< 0.01, ∗∗∗p<0.001, ∗∗∗∗p<0.0001 by Dunnett’s multiple comparisons test vs DMSO or NS, For cell viability assays: mean ± SE, n =3, ∗∗p< 0.01, ∗∗∗p<0.001, ∗∗∗∗p<0.0001 vs 0 mM by student’s t test.
All experiments were performed in incubators at 37 °C, 3% O2 and 5% CO2. […]
(§2) Cell viability was assessed using a cell counting kit-8 from Dojindo Molecular Technologies, Inc (Cat CK04-20). […] The supernatant was transferred to a new 96-well plate and absorbance read at 450 nm as recommended in the product datasheet. […]
Supplementary Fig. 12 (related to Fig. 7) | 25HC treatment of human renal epithelial cells (a) 25HC effects on DMSO- or Doxo-treated hRPTECs at various times. […] Cel l vi abi l i ty was measured every 3–5 days until 15 days. […]
Cells were NS or treated with 10-Gy X-rays. […] Cell viability was measured every 3–5 days until 15 days. […]

[3] = tested on: human cardiac microvascular endothelial cells (hCMECs); assay: Cell viability assay of NS and Doxo- or IR-induced senescent hCMECs treated with 25HC; assay type: cell-based; conditions: 10 μM after 15 days of treatment; Doxo or IR induced senescence
Experimental: as §1
(§3) All experiments were performed in incubators at 37 °C, 3% O2 and 5% CO2. Senescence was induced by treatment with either Doxo (250 nM for 24 h) ([Demaria et al., 2017]) or X-irradiation (10 Gy) ([Limbad et al., 2020]). […]
as §2
Supplementary Fig. 10 (related to Fig. 6-7). […] Cel l vi abi l i ty was measured every 3–5 days until 15 days. […] Cel l vi abi l i ty was measured every 3–5 days until 15 days. […]

[4] = tested on: human liver stellate cells (hLSCs); assay: Cell viability assay of NS and Doxo- or IR-induced senescent hLSCs treated with 25HC; assay type: cell-based; conditions: 100 μM after 3 days; Doxo or IR induced senescence
Experimental: as §1, §3, §2
Cells were treated with either DMSO or 250 nM Doxo for 24 h. […] Cell viability was measured every 3-–5 days until 15 days.
(b) 25HC effects on NS or IR-treated hLSCs at vari ous ti mes. […] Cell viability was measured every 3–5 days until 15 days. […]

C[C@H](CCCC(C)(C)O)[C@H]1CC[C@H]2[C@@H]3CC=C4C[C@@H](O)CC[C@]4(C)[C@H]3CC[C@]12C [25HC, 25-hydroxycholesterol]
SARS-CoV-2 replication [1]: inhibits SARS-CoV-2 replication
senolysis in hRPTECs [2]: induced significant senolysis
senolysis in hCMECs [3]: induced significant senolysis
senolysis in hLSCs [4]: induced significant senolysis
